Experimental data reported in ChEMBL document CHEMBL1201862, “PubChem BioAssay data set” (2004).
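Values below derive from 48-hour exposures of cells grown in 96-well plates, with endpoints linearly interpolated between the two concentrations bracketing the appropriate inhibition level. At the GI50, growth is halved.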 Activity calls are given as the source filed them. No stated cut-off is given here; in the data, active = GI50 up to about 1.1 µM and inactive = higher.

Columns and labels:
Assay in all cases: growth of human tumour cells (NCI), 48 h
NCI-H460 = system: NCI-H460
CCRF-CEM = system: CCRF-CEM
A498 = system: A498
M14 = system: M14
MDA-N = system: MDA-N
TK-10 = system: TK-10
SW-620 = system: SW-620
ACHN = system: ACHN
CAKI-1 = system: CAKI-1
MDA-MB-435 = system: MDA-MB-435
COLO 205 = system: COLO 205
NCI-H226 = system: NCI-H226
MCF7 = system: MCF7
PC-3 = system: PC-3
SK-OV-3 = system: SK-OV-3
786-0 = system: 786-0
HCT-116 = system: HCT-116
HCC 2998 = system: HCC 2998

Measured: GI50

Cn1c(=O)n2n(c1=O)C(C)(C13CC4CC(CC(C4)C1)C3)C13CC4CC(CC1C4)CC23 (configuration not stated)
inactive: NCI-H460 > 100 µM | CCRF-CEM > 100 µM | A498 > 100 µM | M14 > 100 µM | MDA-N > 100 µM | TK-10 > 100 µM | SW-620 > 100 µM | ACHN > 100 µM | CAKI-1 > 100 µM | MDA-MB-435 > 100 µM | COLO 205 > 100 µM | NCI-H226 > 100 µM | MCF7 > 100 µM | PC-3 > 100 µM | SK-OV-3 > 100 µM

COC(=O)C(NC(=O)OC(C)(C)C)P(=O)(OC)OC (configuration not stated)
inactive: 786-0 > 100 µM | A498 > 100 µM | M14 > 100 µM | MDA-N > 100 µM | TK-10 > 100 µM | SW-620 > 100 µM | ACHN > 100 µM | CAKI-1 > 100 µM | MDA-MB-435 > 100 µM | COLO 205 > 100 µM | HCT-116 > 100 µM | NCI-H226 > 100 µM | MCF7 > 100 µM | PC-3 > 100 µM | SK-OV-3 > 100 µM

CCCC(=O)Nc1cc2c3c(c1)CCCN3CCC2
inactive: CCRF-CEM > 10 µM | 786-0 > 10 µM | M14 > 10 µM | MDA-N > 10 µM | TK-10 > 10 µM | SW-620 > 10 µM | ACHN > 10 µM | HCC 2998 > 10 µM | CAKI-1 > 10 µM | MDA-MB-435 > 10 µM | COLO 205 > 10 µM | HCT-116 > 10 µM | MCF7 6.08 µM | PC-3 > 10 µM | SK-OV-3 9.66 µM

Cc1cc2nc3c(C(O)CO)nn(-c4ccccc4)c3nc2cc1C (configuration not stated)
inactive: NCI-H460 12.7 µM | 786-0 17.9 µM | A498 12.1 µM | M14 31.3 µM | MDA-N 18.3 µM | TK-10 14 µM | SW-620 20.5 µM | ACHN 14.4 µM | CAKI-1 15.8 µM | MDA-MB-435 21.2 µM | HCT-116 15.3 µM | NCI-H226 30.6 µM | MCF7 20.2 µM | PC-3 14.4 µM

CN(C)c1cccc2c1C(=O)C=CC21CCc2ccc(N(C)C)c3c(N(C)C)ccc1c23 (configuration not stated)
inactive: NCI-H460 9.04 µM | CCRF-CEM 6.41 µM | 786-0 12.7 µM | A498 4.47 µM | M14 14.2 µM | MDA-N 11.2 µM | TK-10 14.6 µM | SW-620 16.1 µM | ACHN 13.4 µM | CAKI-1 21.4 µM | MDA-MB-435 10.3 µM | COLO 205 15.1 µM | HCT-116 10.9 µM | NCI-H226 17.1 µM | MCF7 11.7 µM | PC-3 11.6 µM | SK-OV-3 10.1 µM

C[N+](C)(C)/C=N\c1cccc2c1CCCC2
inactive: CCRF-CEM 50.7 µM | 786-0 > 100 µM | A498 > 100 µM | M14 > 100 µM | MDA-N > 100 µM | TK-10 > 100 µM | ACHN > 100 µM | CAKI-1 > 100 µM | MDA-MB-435 90.8 µM | COLO 205 43.4 µM | HCT-116 > 100 µM | NCI-H226 58.2 µM | MCF7 > 100 µM | PC-3 39.8 µM | SK-OV-3 > 100 µM

CC(C)N(C)C(=O)C12C3C4C1C1C2C3C41C#N (configuration not stated)
inactive: NCI-H460 > 100 µM | CCRF-CEM > 100 µM | 786-0 > 100 µM | A498 > 100 µM | M14 > 100 µM | MDA-N > 100 µM | TK-10 > 100 µM | SW-620 > 100 µM | ACHN > 100 µM | HCC 2998 > 100 µM | CAKI-1 > 100 µM | MDA-MB-435 > 100 µM | COLO 205 > 100 µM | HCT-116 > 100 µM | MCF7 > 100 µM | PC-3 > 100 µM
